Assays:
[1] = refractive index (Na D-line) (dimensionless); xn = mol fraction of the nth substance listed; conditions: 101 kPa, Liquid, Standard Abbe refractometry
[2] = xn = mol fraction of the nth substance listed; conditions: 101 kPa, Liquid; for viscosity: Capillary tube (Ostwald / Ubbelohde) method; for mass density: Vibrating tube method

ClC(Cl)Cl [trichloromethane] + CC(C)=O
Conditions | mass density, [2] [kg/m3] | refractive index, [1] | viscosity, [2] [mPa·s]
298.15 K, x2 = 0 | 1478.75 | 1.4422 | 0.5916
298.15 K, x2 = 0.0997 | 1419.64 | 1.4342 | 0.589
298.15 K, x2 = 0.1996 | 1357.58 | 1.4262 | 0.5814
298.15 K, x2 = 0.2993 | 1293.35 | 1.4192 | 0.5684
298.15 K, x2 = 0.3999 | 1226.35 | 1.4112 | 0.5412
298.15 K, x2 = 0.4979 | 1159.27 | 1.4029 | 0.5126
298.15 K, x2 = 0.599 | 1088.31 | 1.3941 | 0.4741
298.15 K, x2 = 0.6993 | 1016.22 | 1.3851 | 0.435
298.15 K, x2 = 0.8008 | 941.27 | 1.377 | 0.3975
298.15 K, x2 = 0.9006 | 864.78 | 1.3676 | 0.3443
303.15 K, x2 = 0 | 1469.16 | 1.4397 | 0.558
303.15 K, x2 = 0.0997 | 1409.35 | 1.4309 | 0.5571
303.15 K, x2 = 0.1996 | 1347.6 | 1.4252 | 0.5571
303.15 K, x2 = 0.2993 | 1284.12 | 1.418 | 0.5373
303.15 K, x2 = 0.3999 | 1217.87 | 1.4105 | 0.5156
303.15 K, x2 = 0.4979 | 1151.19 | 1.4019 | 0.4913
303.15 K, x2 = 0.599 | 1080.44 | 1.3924 | 0.4551
303.15 K, x2 = 0.6993 | 1008.68 | 1.3841 | 0.4188
303.15 K, x2 = 0.8008 | 934.43 | 1.3744 | 0.3802
303.15 K, x2 = 0.9006 | 858.83 | 1.3656 | 0.338
308.15 K, x2 = 0 | 1460.01 | 1.4356 | 0.5333
308.15 K, x2 = 0.0997 | 1402.33 | 1.4281 | 0.5329
308.15 K, x2 = 0.1996 | 1341.01 | 1.4215 | 0.5303
308.15 K, x2 = 0.2993 | 1276.96 | 1.4141 | 0.5185
308.15 K, x2 = 0.3999 | 1210.11 | 1.4055 | 0.4968
308.15 K, x2 = 0.4979 | 1143.34 | 1.3968 | 0.4693
308.15 K, x2 = 0.599 | 1073.05 | 1.3875 | 0.4396
308.15 K, x2 = 0.6993 | 1001.9 | 1.3791 | 0.4028
308.15 K, x2 = 0.8008 | 927.99 | 1.3702 | 0.3593
308.15 K, x2 = 0.9006 | 852.47 | 1.3601 | 0.3254
313.15 K, x2 = 0 | 1450.39 | 1.4338 | 0.5072
313.15 K, x2 = 0.0997 | 1393.77 | 1.4276 | 0.5067
313.15 K, x2 = 0.1996 | 1332.05 | 1.4202 | 0.4994
313.15 K, x2 = 0.2993 | 1268.04 | 1.4128 | 0.4876
313.15 K, x2 = 0.3999 | 1201.58 | 1.4048 | 0.468
313.15 K, x2 = 0.4979 | 1135.08 | 1.3965 | 0.4429
313.15 K, x2 = 0.599 | 1064.85 | 1.3873 | 0.4149
313.15 K, x2 = 0.6993 | 993.86 | 1.3787 | 0.383
313.15 K, x2 = 0.8008 | 920.68 | 1.3682 | 0.3453
313.15 K, x2 = 0.9006 | 846.27 | 1.3599 | 0.3056
318.15 K, x2 = 0 | 1440.03 | 1.4297 | 0.4849
318.15 K, x2 = 0.0997 | 1383.86 | 1.4244 | 0.4834
318.15 K, x2 = 0.1996 | 1322.43 | 1.4175 | 0.4798
318.15 K, x2 = 0.2993 | 1258.8 | 1.4094 | 0.4684
318.15 K, x2 = 0.3999 | 1192.83 | 1.4008 | 0.4483
318.15 K, x2 = 0.4979 | 1126.82 | 1.3929 | 0.4207
318.15 K, x2 = 0.599 | 1057.03 | 1.3839 | 0.389
318.15 K, x2 = 0.6993 | 986.42 | 1.3754 | 0.3583
318.15 K, x2 = 0.8008 | 913.61 | 1.365 | 0.3261
318.15 K, x2 = 0.9006 | 839.75 | 1.3548 | 0.2862

From the NIST ThermoML archive (doi:10.1016/j.fluid.2018.10.024)
